Measurements published in the supplement of paper PMC10307832.

What was measured:
Experiment in all cases: relative viability (nuclei count vs DMSO), 5 days (fraction); higher = more cells survive
[1] = compound: CCN(CCO)CCCC(C)Nc1ccnc2cc(Cl)ccc12 [Hydroxychloroquine] + NC(=O)Nc1cc(-c2cccc(F)c2)sc1C(=O)N[C@H]1CCCNC1 [AZD7762] (partner 0.2 µM)
Method in brief: (§1)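 A single step with final 0.05% Triton X-100, 1% formaldehyde and 1 ug/ml Hoechst fixed the cells and stained nuclei 5 days after treatment. Lung cancer cell lines in 1536-well plates had been treated by pin tool the day after seeding with one drug alone or a fixed anchor-drug dose plus five library-drug doses (not always all listed) in √10 steps, and nuclei were counted on 4× images. Relative viability is the ratio of nuclei in treated wells to nuclei in vehicle wells, taken as the median of duplicate plates.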

[2] = compound: CCN(CCO)CCCC(C)Nc1ccnc2cc(Cl)ccc12 [Hydroxychloroquine] + CC(C)C[C@H](NC(=O)[C@H](Cc1ccccc1)NC(=O)c1cnccn1)B(O)O [Bortezomib] (partner 0.002 µM)
Method in brief: as §1

[3] = compound: CCN(CCO)CCCC(C)Nc1ccnc2cc(Cl)ccc12 [Hydroxychloroquine] + CS(=O)(=O)N1CCN(Cc2cc3nc(-c4cccc5[nH]ncc45)nc(N4CCOCC4)c3s2)CC1 [Pictilisib] (partner 1 µM)
Method in brief: as §1

[4] = compound: CCN(CCO)CCCC(C)Nc1ccnc2cc(Cl)ccc12 [Hydroxychloroquine] + C[C@]1(O)C[C@@H](c2nc(-c3ccc4ccc(-c5ccccc5)nc4c3)c3c(N)nccn32)C1 [Linsitinib] (partner 1 µM)
Method in brief: as §1

[5] = compound: CCN(CCO)CCCC(C)Nc1ccnc2cc(Cl)ccc12 [Hydroxychloroquine] + O=C(c1cc(Cc2n[nH]c(=O)c3ccccc23)ccc1F)N1CCN(C(=O)C2CC2)CC1 [Olaparib] (partner 8 µM)
Method in brief: as §1

[6] = compound: CCN(CCO)CCCC(C)Nc1ccnc2cc(Cl)ccc12 [Hydroxychloroquine] + C[C@@H](Oc1cc(-c2cnn(C3CCNCC3)c2)cnc1N)c1c(Cl)ccc(F)c1Cl [Crizotinib] (partner 1 µM)
Method in brief: as §1

[7] = compound: CCN(CCO)CCCC(C)Nc1ccnc2cc(Cl)ccc12 [Hydroxychloroquine] + CC1(C)CCC(c2ccc(Cl)cc2)=C(CN2CCN(c3ccc(C(=O)NS(=O)(=O)c4ccc(N[C@H](CCN5CCOCC5)CSc5ccccc5)c(S(=O)(=O)C(F)(F)F)c4)cc3)CC2)C1 [Navitoclax] (partner 0.5 µM)
Method in brief: as §1

[8] = compound: CCN(CCO)CCCC(C)Nc1ccnc2cc(Cl)ccc12 [Hydroxychloroquine] + COc1cc2c(Oc3ccc(NC(=O)C4(C(=O)Nc5ccc(F)cc5)CC4)cc3F)ccnc2cc1OCCCN1CCOCC1 [Foretinib] (partner 0.25 µM)
Method in brief: as §1

[9] = compound: CCN(CCO)CCCC(C)Nc1ccnc2cc(Cl)ccc12 [Hydroxychloroquine] + Cc1nc(NC(=O)N2CCC[C@H]2C(N)=O)sc1-c1ccnc(C(C)(C)C(F)(F)F)c1 [Alpelisib] (partner 2 µM)
Method in brief: as §1

[10] = compound: CCN(CCO)CCCC(C)Nc1ccnc2cc(Cl)ccc12 [Hydroxychloroquine] + CS(=O)(=O)CCNCc1ccc(-c2ccc3ncnc(Nc4ccc(OCc5cccc(F)c5)c(Cl)c4)c3c2)o1 [Lapatinib] (partner 2 µM)
Method in brief: as §1

[11] = compound: CCN(CCO)CCCC(C)Nc1ccnc2cc(Cl)ccc12 [Hydroxychloroquine]
Method in brief: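 Lung cancer cell lines in 1536-well plates were kept overnight at 37 °C, then pinned with five library-drug doses (not always all listed) spaced by √10 on vehicle-anchored plates. After 5 days without medium change, cells were fixed, permeabilised and Hoechst-stained in one step, imaged at 4×, and nuclei were counted with MetaXpress. Viability is treated-well nuclei divided by vehicle-well nuclei, taken as the median over plates. Plates passed only with control CV below 25% and at least one doubling.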

NCI-H1703
relative viability ([1]; first compound 0.5 µM): 0.196
relative viability ([1]; first compound 1.581 µM): 0.159
relative viability ([1]; first compound 5 µM): 0.135
relative viability ([1]; first compound 15.81 µM): 0.114
relative viability ([1]; first compound 50 µM): 0.137
relative viability ([2]; first compound 0.5 µM): 0.322
relative viability ([2]; first compound 1.581 µM): 0.273
relative viability ([2]; first compound 5 µM): 0.284
relative viability ([2]; first compound 15.81 µM): 0.291
relative viability ([2]; first compound 50 µM): 0.316
relative viability ([3]; first compound 0.5 µM): 0.272
relative viability ([3]; first compound 1.581 µM): 0.241
relative viability ([3]; first compound 5 µM): 0.224
relative viability ([3]; first compound 15.81 µM): 0.263
relative viability ([3]; first compound 50 µM): 0.216
relative viability ([4]; first compound 0.5 µM): 0.601
relative viability ([4]; first compound 1.581 µM): 0.418
relative viability ([4]; first compound 5 µM): 0.8
relative viability ([4]; first compound 15.81 µM): 0.614
relative viability ([4]; first compound 50 µM): 1.09
relative viability ([5]; first compound 0.5 µM): 0.424
relative viability ([5]; first compound 1.581 µM): 0.431
relative viability ([5]; first compound 5 µM): 0.556
relative viability ([5]; first compound 15.81 µM): 0.467
relative viability ([5]; first compound 50 µM): 0.446
relative viability ([6]; first compound 0.5 µM): 0.851
relative viability ([6]; first compound 5 µM): 0.592
relative viability ([6]; first compound 15.81 µM): 0.74
relative viability ([6]; first compound 50 µM): 0.921
relative viability ([7]; first compound 0.5 µM): 1.08
relative viability ([7]; first compound 1.581 µM): 0.934
relative viability ([7]; first compound 5 µM): 1.02
relative viability ([7]; first compound 15.81 µM): 1.02
relative viability ([7]; first compound 50 µM): 1.29
relative viability ([8]; first compound 0.5 µM): 0.402
relative viability ([8]; first compound 1.581 µM): 0.443
relative viability ([8]; first compound 5 µM): 0.313
relative viability ([8]; first compound 15.81 µM): 0.347
relative viability ([8]; first compound 50 µM): 0.379
relative viability ([9]; first compound 0.5 µM): 0.401
relative viability ([9]; first compound 1.581 µM): 0.21
relative viability ([9]; first compound 5 µM): 0.326
relative viability ([9]; first compound 15.81 µM): 0.343
relative viability ([9]; first compound 50 µM): 0.367
relative viability ([10]; first compound 0.5 µM): 0.959
relative viability ([10]; first compound 5 µM): 1.05
relative viability ([10]; first compound 15.81 µM): 1.29
relative viability ([10]; first compound 50 µM): 0.763
relative viability ([11]; 0.5 µM): 0.912
relative viability ([11]; 1.581 µM): 0.79
relative viability ([11]; 5 µM): 0.946
relative viability ([11]; 15.81 µM): 0.924
relative viability ([11]; 50 µM): 0.898
